According to patent US20260263638A1, “COMPOSITIONS AND METHODS TO IMPROVE RNA PROPERTIES USING BASE, PHOSPHODIESTER LINKAGE, SUGAR BACKBONE, AND CAP MODIFICATIONS” (The Broad Institute, Inc., priority 2023, published 2026):
Strand notation (5' to 3'): a small letter for the sugar, then the base; units joined by * are phosphorothioate-linked, units joined directly phosphodiester-linked; [ ] holds rarer units or linkages, { } end groups; capitals alone tell only the bases. {m7G-cap} = 7-methylguanosine cap added chemically (m7GDP-imidazolide) to the 5'-phosphate; e = 2'-O-(2-methoxyethyl) (MOE); [I] = hypoxanthine (inosine); d = 2'-deoxy (DNA); m = 2'-O-methyl; r = 2'-OH (RNA); {P} = phosphate; f = 2'-fluoro

Assays:
HeLa cells = test: Time-course dual luciferase assay of modified Firefly luciferase mRNA (Renilla control); assay type: cell-based; conditions: for Effect of cap/5′ UTR modification on protein production / translation / Protein expression (Firefly luciferase luminescence normalized to Renilla, then to m7G-rG), fold increase: HeLa cells; for Effect of cap/5′ UTR modification on protein production / translation: Fluc reporter, result in words; for Protein expression (Firefly luciferase luminescence normalized to Renilla, then to m7G-rG), fold increase: 8-, 24-, 48-hours post-transfection, benchmark m7G-rG
Description: The modularity of this workflow enabled divergent construction and evaluation of mRNAs featuring four different types of cap and 5′ UTR modifications (FIG. 8A): (1) base identities within the 5′ UTR, including as locations beyond the third base (+3 position), (2) phosphodiester linkages within the 5′ UTR, (3) sugar backbone modifications within the 5′ UTR, and (4) cap modifications. The effects of all of these different types of modifications on protein translation were assayed using Firefly luciferase reporter at 8-, 24-, and 48-hours post-transfection.
HeLa cells [ATCC, CCL-2] were maintained in DMEM culture media [ThermoFisher Scientific, 119951] containing 10% FBS and 1% penicillin-streptomycin [ThermoFisher Scientific, 15070063] in a 37° C. incubator with 5% CO2 and passaged at a ratio of 1:10 every 3 days. On the day before mRNA transfection, HeLa cells were seeded at 90% confluence in individual wells on 24-well plates. The following day, 50 ng of Renilla luciferase (internal control) mRNA and 50 ng of modified Firefly luciferase mRNA were transfected using Lipofectamine MessengerMAX Transfection Reagent [ThermoFisher Scientific, LMRNA003] per manufacturer's protocols. Additional controls that contain only Renilla luciferase mRNA or lipofection reagent only were included. Three individual transfections were conducted for each condition. 6 hours after transfection, the transfection media was removed, and cells were trypsinized and reseeded to three white clear-bottom 96-well plates [Corning, 3610] in phenol-red-free media. At 8-, 24-, and 48-hours post-transfection, cell culture media was removed and cells were rinsed with DPBS. Cells were lysed and luciferase activity was measured using the Promega Dual Glo Luciferase Assay System [Promega, E2920]. Firefly luminescence/Renilla luminescence for each well was used as mRNA activity readout. In cases where Nluc and Fluc were used, the protocol was conducted similarly using the Nano-Glo Dual-Luciferase Reporter Assay System [Promega, N1610].

eIF4E = target: T1, eIF4E (Homo sapiens, UniProt P06730); test: eIF4E electrophoretic mobility shift assay (EMSA); assay type: binding; conditions: AF647-labeled capped oligos, read-out: eIF4E dissociation constant (Kd)
T1 construct: His; purchased Cayman Chemical Inc 25150
T1 sequence (P06730 whole entry): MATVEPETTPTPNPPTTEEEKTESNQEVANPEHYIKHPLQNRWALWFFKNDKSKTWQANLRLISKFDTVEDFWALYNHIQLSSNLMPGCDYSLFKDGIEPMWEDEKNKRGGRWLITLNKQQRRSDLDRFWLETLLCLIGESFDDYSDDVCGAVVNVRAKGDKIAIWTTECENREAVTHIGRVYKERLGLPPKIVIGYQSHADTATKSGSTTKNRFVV
Description: eIF4E affinity to fluorophore-labeled capped RNA oligonucleotides was quantified through electrophoretic mobility shift assay (EMSA) (FIGS. 14D and 9A-9E).
Capped oligonucleotides were labeled on the 3′ end using AF647 labeled cytidine-5′-phosphate-3′-(6-aminohexyl) phosphate [Jena Bioscience, NU-1706-AF647] and T4 RNA ligase ligated AF647-labeled cytidine onto the capped oligos using manufacturer's protocols. Oligos were then incubated in the binding buffer (1 mM DTT, 50 mM KCl, 10 mM Tris-HCl (pH 7.6), Novex Hi-Density TBE Sample Buffer [Invitrogen, LC6678]) with varying eIF4E-His [Cayman Chemical Inc, 25150] concentrations prepared by sequential dilutions from the stock solution. The oligos and […] were incubated at 4° C. for 30 mins and characterized by EMSA with Novex TBE Gels, 4-20% [Invitrogen, EC6225BOX] at 4° C. AF647 labeled oligos were imaged with BioRad ChemiDoc MP Imaging System [12003154] and band intensities were quantified using ImageJ. For Kd calculation, the proportions of bound were plotted against eIF4E concentration using GraphPad Prism (Specific binding with Hill slope).

[1] = target: T2, human decapping enzyme 2 (hDcp2) (Homo sapiens, UniProt Q8IU60); test: hDcp2 decapping assay; assay type: biochemical; conditions: 23-nt capped oligos; result in words
T2 construct: purchased Enzymax LLC 86
Description: Next, the influence of modifications on decapping activity was examined. To this end, 23-nucleotide (23-nt) oligonucleotides with various modification patterns were subjected to decapping reactions and analyzed at different time intervals (FIGS. 14E and 9I).
500 ng of capped oligos were incubated in 75 μL decapping reaction buffer (10 mM Tris-HCl (pH 7.5), 100 mM NaCl, 2 mM MgCl2, 1 mM DTT, 2 mM MnCl2, 1:25 SUPERaseIn (v/v)) with 300 ng of hDcp2 [Enzymax LLC, 86] at 37° C. At indicated time points, 5 μL of reaction mixture was aliquoted out into 10 μL of denaturing gel-loading buffer [NEB, B0363S, with urea added to a final concentration of 5 M] and cooled to −20° C. until all time points were collected. The fractions were analyzed by PAGE using Novex 15% TBE-Urea gel [Invitrogen, EC6885BOX] by running at 100 V for 2 hours and stained by 1×SYBR Gold [ThermoFisher Scientific, S11494], and visualized using BioRad ChemiDoc MP Imaging System [12003154]. Band intensities were quantified using ImageJ.

Substance	Effect of cap/5′ UTR modification on protein production / translation (HeLa cells)	further results
construct 2: m7G cap; /5Phos/rUrGrArGrArArUrArArArArA (SEQ ID NO: 3) (UGAGAAUAAAAA; m7G cap, 5' phosphate; modified_base 1 OTHER; 5'-phosphate modified nucleotide)	A>G~C~U	
construct 9: m7G cap; /5Phos//ibetaL-rA/rGrArGrArArUrArArArArA (SEQ ID NO: 10) (AGAGAAUAAAAA; m7G cap; 5' phosphate; beta-L-A; modified_base 1 OTHER; 5'-phosphate modified L-adenosine)	negligible changes	
construct 4: m7G cap; /5Phos/rIrGrArGrArArUrArArArArA (SEQ ID NO: 5) ({P}-r[I]rGrArGrArArUrArArArArA; m7G cap on the 5'-phosphate)	enhanced protein production	
construct 8: m7G cap; /5Phos//i2FA/rGrArGrArArUrArArArArA (SEQ ID NO: 9) ({P}-fArGrArGrArArUrArArArArA; m7G cap on the 5'-phosphate)	hindered translation	
construct 28: m7G cap; OU handle only; /5Phos/rArGrArUrArArA/i5OCTdU/rArArArArArA (SEQ ID NO: 38) (AGATAAATAAAAAA; m7G cap; internal octyne-dU handle; modified_base 1 OTHER; 5'-phosphate modified nucleotide; modified_base 8 OTHER; 5-Octadiynyl modified uracil; misc_feature 1..7 RNA; misc_feature 8 DNA; misc_feature 9..14 RNA)		Kd (eIF4E): 2.21 µM
construct 1: m7G cap; /5Phos/rArGrArGrArArUrArArArArA (SEQ ID NO: 2) (AGAGAAUAAAAA; m7G cap, 5' phosphate; modified_base 1 OTHER; 5'-phosphate modified nucleotide)	A>G~C~U	
construct 18: Bn7G cap; /5Phos/rArGrArGrArArUrArArArArA (SEQ ID NO: 19) (AGAGAAUAAAAA; Bn7G cap, 5' phosphate; modified_base 1 OTHER; 5'-phosphate modified nucleotide)	did not outperform m7G	
construct 21: LNAm7G cap; /5Phos/rArGrArGrArArUrArArArArA (SEQ ID NO: 22) ({P}-rArGrArGrArArUrArArArArA; LNA-modified m7G cap on the 5'-phosphate)		Protein expression (Firefly luciferase luminescence normalized to Renilla, then to m7G-rG), fold increase (HeLa cells): 4.5 fold
construct 12: m7G cap; /5Phos//i2MOErA/rGrArGrArArUrArArArArA (SEQ ID NO: 13) ({m7G-cap}-eArGrArGrArArUrArArArArA)		Protein expression (Firefly luciferase luminescence normalized to Renilla, then to m7G-rG), fold increase (HeLa cells): 4.8 fold
construct 24: LNAm7G cap; /5Phos/mAmGmAmGmAmArUrArArArArA (SEQ ID NO: 25) ({P}-mAmGmAmGmAmArUrArArArArA; LNA-modified m7G cap on the 5'-phosphate)		Protein expression (Firefly luciferase luminescence normalized to Renilla, then to m7G-rG), fold increase (HeLa cells): 7.5 fold; Kd (eIF4E): 1.57 ± 0.116 µM
construct 20: ClBnOEt7G cap; /5Phos/rArGrArGrArArUrArArArArA (SEQ ID NO: 21) (AGAGAAUAAAAA; ClBnOEt7G cap, 5' phosphate; modified_base 1 OTHER; 5'-phosphate modified nucleotide)	did not outperform m7G	
construct 42: dual LNAm7G-capped; /5Phos/rArGrArGrArUrArA/3AzideN/ clicked to /5Phos/rArGrArUrArArA/i5OCTdU/rArArArArArA (SEQ ID NO: 120) (AGATAAATAAAAAA; dual LNA-m7G caps via click branch; modified_base 1 OTHER; 5'-phosphate modified nucleotide; modified_base 8 OTHER; 5-Octadiynyl modified uracil; misc_feature 1..7 RNA; misc_feature 8 DNA; misc_feature 9..14 RNA)		Kd (eIF4E): 1.28 µM
construct 26: m7G-capped azide oligo /5Phos/rArGrArGrArUrArA/3AzideN/ clicked to uncapped rArArA/i5OCTdU/rArArArArArA (SEQ ID NO: 33) (AAATAAAAAA; m7G-capped azide oligo clicked to internal octyne-dU; modified_base 4 OTHER; 5-Octadiynyl modified uracil; misc_feature 1..3 RNA; misc_feature 4 DNA; misc_feature 5..10 RNA)		Translation of branched / dual-capped Fluc mRNA (bioluminometry), result in words (HeLa cells; topological screening: OU handle position, branching point, branch length, PS): effectively induce mRNA translation
construct 10: m7G cap; /5Phos/ArGrArGrArArUrArArArArA (SEQ ID NO: 11) ({m7G-cap}-dArGrArGrArArUrArArArArA)	negligible changes	
construct 3: m7G cap; /5Phos/rCrGrArGrArArUrArArArArA (SEQ ID NO: 4) (CGAGAAUAAAAA; m7G cap, 5' phosphate; modified_base 1 OTHER; 5'-phosphate modified nucleotide)	A>G~C~U	
construct 5: m7G cap; /5Phos//iN6Me-rA/rGrArGrArArUrArArArArA (SEQ ID NO: 6) (AGAGAAUAAAAA; m7G cap; 5' phosphate; N6-methyl-A; modified_base 1 OTHER; 5'-phosphate modified N6-methyladenosine)	enhanced protein production	
construct 19: ClBn7G cap; /5Phos/rArGrArGrArArUrArArArArA (SEQ ID NO: 20) (AGAGAAUAAAAA; ClBn7G cap, 5' phosphate; modified_base 1 OTHER; 5'-phosphate modified nucleotide)	did not outperform m7G	
construct 43: m7G cap; /5Phos/mAmGmAmGmAmAmUmAmAmAmAmAmAmGmGmGmAmAmUmAmAmAmC (SEQ ID NO: 26) ({P}-mAmGmAmGmAmAmUmAmAmAmAmAmAmGmGmGmAmAmUmAmAmAmC; m7G cap on the 5'-phosphate)		Susceptibility / resistance to hDcp2 decapping [1]: increased decapping resistance to a similar level as LNA modification
construct 16: m7G cap; /5Phos//i2MOErA//i2MOErG//i2MOErA//i2MOErG//i2MOErA//i2MOErA/rUrArArArArA (SEQ ID NO: 17) ({P}-eAeGeAeGeAeArUrArArArArA; m7G cap on the 5'-phosphate)		Protein expression (Firefly luciferase luminescence normalized to Renilla, then to m7G-rG), fold increase (HeLa cells): 5.4 fold
